This is an account of results in US12473291B2 (priority 2019, dated 2025).

Structures can show the parent of a compound that is named as a salt. Where two headings read alike, the source gives them in different places.

One assay deals with KM mice. Description: animal or person. In kind it is in vivo. The following applies: for ED50: Mus musculus.
A further assay relates to SD rats. Briefly: animal or person. The note with it: for ED50: Rattus norvegicus. In kind it is in vivo.
Setting [1] is: KM mice, single tail vein injection at 2×ED50, time from disappearance to recovery of righting reflex.
Setting [2] is: KM mice, single tail vein injection at 2×ED50, time from recovery of righting reflex to free crawling.
[3] abbreviates: KM mice (male, 18-22 g), injection via the tail vein, disappearance of righting reflex, read-out: ED50.
[4] abbreviates: SD rats (male, 220-300 g), injection via the tail vein, disappearance of righting reflex, read-out: ED50.
Setting [5] is: SD rats, single tail vein injection at 2×ED50, time from disappearance to recovery of righting reflex.
The mark [6] stands for this setting: SD rats, single tail vein injection at 2×ED50, time from recovery of righting reflex to free crawling.

One may read the ED50 as the midpoint of the dose-response relation. In the case of `CCOC(=O)C1(OC(=O)CC[C@@H]2N=C(c3ccccn3)c3cc(Cl)c(Cl)cc3-n3c(C)cnc32)CC1` [Example 69, Ethyl 1-((3-((4S)-8,9-dichloro-1-methyl-6-(pyridine-2-yl)-4H-benzo[f]imidazo[1,2-a][1,4]diaza-4-yl)propionyl)oxy) cyclopropane-1-carboxylate benzoic acid], the ED50 with KM mice was determined as 23.8 mg/kg. In the assay on KM mice (mouse, in vivo), the 2ED50 duration was determined as 3.45 min, the 2ED50 recovery time was found to be 2.38 min and the Quality of recovery result is reported as “++++ (key: “+” means <1 mm; “++” means 1-3 min; “+++” means 3-5 min; “++++” means 5-10 min; “+++++” means >10 mm)”. This molecule gave an ED50 in the assay with SD rats of 6.1 mg/kg. Also, in the assay with SD rats (rat, in vivo), the “2ED50 duration” value turned out to be 3.16 min, the 2ED50 recovery time is 2.48 min and the Quality of recovery entry is “++ (key: “+” means <1 mm; “++” means 1-3 min; “+++” means 3-5 min; “++++” means 5-10 min; “+++++” means >10 mm)”.
For the molecule `COC(=O)OCOC(=O)CC[C@@H]1N=C(c2ccccn2)c2cc(Cl)c(F)cc2-n2c(C)cnc21` [Example 70, ((Methoxycarbonyl)oxy)methyl 3-((4S)-8-chloro-9-fluoro-1-methyl-6-(pyridine-2-yl)-4H-benzo[f]imidazo [1,2-a][1,4]diaza-4-ylpropionate borate], it took a dose of 26.7 mg/kg to reach the 50% effect level with KM mice (ED50). For the same molecule, in the assay with KM mice (mouse, in vivo), the 2ED50 duration was 3.27 min, the 2ED50 recovery time came to 2.54 min and the Quality of recovery entry was “+++ (key: “+” means <1 mm; “++” means 1-3 min; “+++” means 3-5 min; “++++” means 5-10 min; “+++++” means >10 mm)”. Further, the 50% effective dose (ED50) in the assay with SD rats amounted to 4.6 mg/kg. In the assay with SD rats (rat, in vivo), the “2ED50 duration” value worked out at 3.56 min, the 2ED50 recovery time is on record as 2.57 min and the Quality of recovery entry was “+++ (key: “+” means <1 mm; “++” means 1-3 min; “+++” means 3-5 min; “++++” means 5-10 min; “+++++” means >10 mm)”.
Regarding `CCOC(=O)OCOC(=O)CC[C@@H]1N=C(c2ccccn2)c2cc(Cl)cc(F)c2-n2c(C)cnc21` [Example 71, ((Ethoxycarbonyl)oxy)methyl 3-((4S)-8-chloro-10-fluoro-1-methyl-6-(pyridine-2-yl)-4H-benzo[f]imidazo [1,2-a][1,4]diaza-4-yl)propionate 2-hydroxypropane-1,2,3-tricarboxylate], the figures for the ED50 in the assay on KM mice and in the assay with SD rats were 28.2 mg/kg and 4.8 mg/kg, respectively. Further, the 2ED50 duration in the assay with KM mice (mouse, in vivo) turned out to be 3.09 min; in the assay on SD rats (rat, in vivo), 3.21 min. For the same molecule, the 2ED50 recovery time stood at 2.36 min with KM mice (mouse, in vivo) and 2.36 min in the assay on SD rats (rat, in vivo). Further, the Quality of recovery entry is “++ (key: “+” means <1 mm; “++” means 1-3 min; “+++” means 3-5 min; “++++” means 5-10 min; “+++++” means >10 mm)” in the assay with KM mice (mouse, in vivo) and “+ (key: “+” means <1 min; “++” means 1-3 min; “+++” means 3-5 min; “++++” means 5-10 min; “+++++” means >10 min)” in the assay with SD rats (rat, in vivo).
As to `CCCOC(=O)OCOC(=O)CC[C@@H]1N=C(c2ccccn2)c2c(ccc(Br)c2F)-n2c(C)cnc21` [Example 72, ((Propoxycarbonyl)oxy)methyl 3-((4S)-8-bromo-7-fluoro-1-methyl-6-(pyridine-2-yl)-4H-benzo[f]imidazo [1,2-a][1,4]diaza-4-ylpropionate sulfonate], the 2ED50 duration was determined as 3.12 min in the assay with KM mice (setting [1]) and 4.01 min in the assay on SD rats (setting [5]). Further, the 2ED50 recovery time in the assay with KM mice (setting [2]) is given as 2.48 min; in the assay with SD rats (setting [6]), 2.43 min. For the same molecule, the Quality of recovery entry in the assay with KM mice (KM mice, tail vein injection) is “+++ (“+++” means 3-5 min)”; in the assay on SD rats (SD rats, tail vein injection) it was “++ (“++” means 1-3 min)”. Besides, the ED50 stood at 32.5 mg/kg with KM mice (setting [3]) and 4.9 mg/kg in the assay on SD rats (setting [4]).
For `COC(=O)C(OC(=O)CC[C@@H]1N=C(c2ccccn2)c2cc(Br)c(OC(F)(F)F)c(C)c2-n2c(C)cnc21)C1CCSC1` (stereo partly drawn) [Example 74, 2-methoxy-2-oxo-1-(tetrahydrothiophene-3-yl)ethyl 3-((4S)-8-bromo-1,10-dimethyl-6-(pyridine-2-yl)-9-(trifluoromethoxy)-4H-benzo[f]imidazo[1,2-a][1,4]diazapin-4-yl)propionate stearate], the 2ED50 duration in the assay with KM mice (setting [1]) amounted to 3.42 min; in the assay with SD rats (setting [5]) it was 2.67 min. The 2ED50 recovery time is reported as 2.17 min in the assay with KM mice (setting [2]) and 2.54 min with SD rats (setting [6]). The Quality of recovery entry is “++ (“++” means 1-3 min)” in the assay on KM mice (KM mice, tail vein injection) and “+++ (“+++” means 3-5 min)” with SD rats (SD rats, tail vein injection). Besides, the ED50 with KM mice (setting [3]) worked out at 24.5 mg/kg; with SD rats (setting [4]), 5.7 mg/kg.
Take `CCCOC(=O)C1(OC(=O)CC[C@@H]2N=C(c3ccccn3)c3c(cc(OC(F)(F)F)c(Cl)c3C)-n3c(C)cnc32)CC1` [Example 75]: the 2ED50 duration was determined as 3.53 min in the assay with KM mice (setting [1]) and 2.26 min in the assay on SD rats (setting [5]). In addition, the 2ED50 recovery time in the assay on KM mice (setting [2]) turned out to be 1.58 min; in the assay on SD rats (setting [6]), 2.15 min. The Quality of recovery result was “+++ (“+++” means 3-5 min)” in the assay with KM mice (KM mice, tail vein injection) and “+++ (“+++” means 3-5 min)” with SD rats (SD rats, tail vein injection). In addition, the median effective dose (ED50) in the assay with KM mice (setting [3]) stood at 29.1 mg/kg; in the assay with SD rats (setting [4]), 5.8 mg/kg.
Take `Cc1cc2c(c(C)c1C)C(c1ccccn1)=N[C@@H](CCC(=O)OCC(=O)OC(C)C)c1ncc(C)n1-2` [Example 76, 2-Isopropoxy-2-oxoethyl-3-(((4S)-1,7,8,9-tetramethyl-6-(pyridine-2-yl)-4H-benzo[f]imidazo[1,2-a][1,4]diaza-4-ylpropionate phosphate]: the 2ED50 duration in the assay with KM mice (setting [1]) is reported as 3.28 min; in the assay on SD rats (setting [5]), 2.47 min. Besides, the 2ED50 recovery time in the assay on KM mice (setting [2]) turned out to be 2.49 min; in the assay with SD rats (setting [6]), 2.23 min. Besides, the Quality of recovery entry was “++++ (“++++” means 5-10 min)” with KM mice (KM mice, tail vein injection) and “+++ (“+++” means 3-5 min)” with SD rats (SD rats, tail vein injection). Further, the ED50 was determined as 27.8 mg/kg with KM mice (setting [3]) and 6.3 mg/kg with SD rats (setting [4]).
Regarding `CCOC(=O)C(C)(C)OC(=O)CC[C@@H]1N=C(c2ccccn2)c2c(cc(C)c(Cl)c2C)-n2c(C)cnc21` [Example 77, Ethyl 2-((3-((4S)-8-chloro-1,7,9-trimethyl-6-(pyridine-2-yl)-4H-benzo[f]imidazo[1,2-a][1,4]diazapin-4-yl)propionyl)oxy)-2-methylpropionate 2-hydroxy-1-naphthoate], the 2ED50 duration in the assay with KM mice (setting [1]) amounted to 3.28 min; in the assay with SD rats (setting [5]), 2.38 min. For the same molecule, the figures for the 2ED50 recovery time in the assay with KM mice (setting [2]) and in the assay on SD rats (setting [6]) were 2.39 min and 2.47 min, respectively. In addition, the Quality of recovery entry is recorded as “+++ (“+++” means 3-5 min)” in the assay with KM mice (KM mice, tail vein injection) and “+++ (“+++” means 3-5 min)” in the assay on SD rats (SD rats, tail vein injection). The ED50 came to 30.2 mg/kg with KM mice (setting [3]) and 6.1 mg/kg with SD rats (setting [4]).
In the assay on KM mice, `Cc1c(Cl)c(C(F)(F)F)cc2c1C(c1ccccn1)=N[C@@H](CCC(=O)OC(C)C(=O)OC(C)C)c1ncc(C)n1-2` (stereo partly drawn) [Example 78, 1-Isopropoxy-1-oxopropane-2-yl3-((4S)-8-chloro-1,7-dimethyl-6-(pyridine-2-yl)-9-(trifluoromethyl)-4H-benzo[f]imidazo[1,2-a][1,4]diaza-4-ylpropionate nicotinate] returned an ED50 of 28.2 mg/kg. In addition, in the assay on KM mice (mouse, in vivo), the 2ED50 duration was 3.39 min, the 2ED50 recovery time is 1.36 min and the Quality of recovery result is “++ (key: “+” means <1 mm; “++” means 1-3 min; “+++” means 3-5 min; “++++” means 5-10 min; “+++++” means >10 mm)”. In addition, the ED50 in the assay with SD rats was 6.2 mg/kg. Further, in the assay on SD rats (rat, in vivo), the “2ED50 duration” value came to 2.55 min, the 2ED50 recovery time is 2.38 min and the Quality of recovery entry was “++ (key: “+” means <1 mm; “++” means 1-3 min; “+++” means 3-5 min; “++++” means 5-10 min; “+++++” means >10 mm)”.
With `COC(=O)C1(OC(=O)CC[C@@H]2N=C(c3ccccn3)c3cc(Cl)c(C)c(C)c3-n3c(C)cnc32)CC1` [Example 79, 1-((3-((4S)-8-chloro-1,9,10-trimethyl-6-(pyridine-2-yl)-4H-benzo[f]imidazo[1,2-a][1,4]diaza-4-yl)propionyl)oxy) cyclopropane-1-carboxylate 1-naphthoate], the 2ED50 duration is recorded as 3.45 min in the assay on KM mice (setting [1]) and 2.48 min in the assay with SD rats (setting [5]). Further, the 2ED50 recovery time in the assay with KM mice (setting [2]) is on record as 1.38 min; in the assay on SD rats (setting [6]), 2.19 min. Also, the Quality of recovery entry in the assay on KM mice (KM mice, tail vein injection) is reported as “+++ (“+++” means 3-5 min)”; with SD rats (SD rats, tail vein injection), “+++ (“+++” means 3-5 min)”. For the same molecule, the ED50 with KM mice (setting [3]) is 31.3 mg/kg; in the assay with SD rats (setting [4]), 6.6 mg/kg.
With `COc1cc(C)cc2c1-n1c(C)cnc1[C@H](CCC(=O)OC1(C(=O)OC(C)C)CC1)N=C2c1ccccn1` [Example 80, Isopropyl 1-((3-((4S)-10-methoxy-1,8-dimethyl-6-(pyridine-2-yl)-4H-benzo[f]imidazo[1,2-a][1,4]diaza-4-yl)propionyl)oxy) cyclopropane-1-carboxylate methyl sulfate], the 2ED50 duration with KM mice (setting [1]) worked out at 3.56 min; with SD rats (setting [5]), 2.36 min. The figures for the 2ED50 recovery time with KM mice (setting [2]) and with SD rats (setting [6]) were 2.01 min and 2.18 min, respectively. For the same molecule, the Quality of recovery result was “+++ (“+++” means 3-5 min)” in the assay on KM mice (KM mice, tail vein injection) and “++ (“++” means 1-3 min)” in the assay on SD rats (SD rats, tail vein injection). The ED50 with KM mice (setting [3]) stood at 30.9 mg/kg; in the assay with SD rats (setting [4]), 6.7 mg/kg.
Regarding `CCOC(=O)C(C)OC(=O)CC[C@@H]1N=C(c2ccccn2)c2cc(C)c(OC)cc2-n2c(C)cnc21` (stereo partly drawn) [Example 81, 1-Ethoxy-1-oxopropane-2-yl3-((4S)-9-methoxy-1,8-dimethyl-6-(pyridine-2-yl)-4H-benzo[f]imidazo[1,2-a][1,4]diaza-4-ylpropionate malonate], the 2ED50 duration was found to be 3.49 min with KM mice (setting [1]) and 2.43 min in the assay on SD rats (setting [5]). Further, the values for the 2ED50 recovery time in the assay on KM mice (setting [2]) and in the assay with SD rats (setting [6]) were 2.43 min and 2.09 min, respectively. Further, the Quality of recovery entry in the assay with KM mice (KM mice, tail vein injection) is listed as “+++ (“+++” means 3-5 min)”; in the assay on SD rats (SD rats, tail vein injection), “+++ (“+++” means 3-5 min)”. Also, the ED50 in the assay on KM mice (setting [3]) amounted to 31.1 mg/kg; with SD rats (setting [4]), 6.2 mg/kg.
